Results taken from article PMC9500072, “Topical application of an irreversible small molecule inhibitor of lysyl oxidases ameliorates skin scarring and fibrosis” (Nature Communications, 2022).
“And” between values parts separate entries of the source, which are not always exact repeats. Equal values may be shown once.

How the values were obtained:
[1] = system: primary dermal fibroblasts; experiment: Procollagen I FRET measurement, scar-in-a-jar; type: cell-based, human; details: highest dose (10 µM)
[2] = molecular target: Platelet Activating Factor (PAF) (Homo sapiens, UniProt P25105); experiment: Eurofins panel 265010; type: binding
Potassium Channel [KATP] = Potassium Channel [KATP] (Cricetus cricetus, UniProt Q09427); experiment: Eurofins panel 265600; type: binding, ham
Description: PXS-4787 competes with a model substrate (putrescine) for the LOX binding site (Fig. 2d). The allylamine of PXS-4787 interacts with the co-factor of the enzyme and elicits mechanism-based inhibition (Fig. 2e). Through careful optimization, and in contrast to BAPN, PXS-4787 selectivity targets lysyl oxidases and is neither an inhibitor of, nor a substrate for, related oxidases (Fig. 2f, g and Supplementary Table S1). Furthermore, PXS-4787 was clean when profiled in a broad panel of macromolecular targets using enzyme and radioligand binding assays (LeadProfilingScreen, Eurofins CEREP Panlabs, 68 assays, test concentration 10 µM; Supplementary Data S1).

[3] = molecular target: Leukotriene, Cysteinyl CysLT1 (Homo sapiens, UniProt Q9Y271); experiment: Eurofins panel 250460; type: binding
[4] = system: primary human dermal fibroblasts; experiment: qPCR COL1A1 and LOX gene expression; type: cell-based; parameters: key to qPCR COLIAI / qPCRLOX: relative expression by 2^−ΔΔCt, GAPDH/PGK1 housekeeping
Protocol: Changes in COL1A1 and LOX gene expression in PXS-4787 treated cells were done using primary human dermal fibroblasts (50,000) seeded in a 6-well plate under Scar-in-a-jar media. The cells were incubated with 0 µM, 1 µM, and 10 µM PXS-4787 treatment for 48 h. mRNA was extracted using RNeasy mini kit® according to the manufacturer’s protocol (Qiagen Gmbh). The total concentration and purity of RNA were determined using a NAnodrop 2000C (Thermo Scientific, USA). For reverse transcription, mRNA was converted to cDNA using QuantiTect Reverse Transcription kit (Qiagen; Catalog no. 205311) according to the manufacturer’s protocol. Quantitative real-time RT-PCR was conducted using SYBR Green Master Mix (Qiagen; Catalog no. 204143) and Rotor gene Q thermocycler (Qiagen). The reactions were carried out in triplicate in 20 µl total volume containing 1 µl cDNA and 2 µl primers. The QuantiTect Primer assay for COL1A1 (Catalog no. QT00037793), LOX (Catalog no. QT00017311) were used. GAPDH (Catalog no. QT00079247) and PGK1 (Catalog no. 249900) were used as a housekeeping gene. The data were analyzed using Rotor geneQ software and the relative gene expression was calculated using the 2−^(∆∆c (t)) method. Three biological samples were used for each condition.

[5] = Rat pharmacokinetic-pharmacodynamic model, skin concentration; type: in vivo; details: topical; for concentration at 24 h after the last dose: 24 h after last dose; for concentration at 24 h: 500 mg on 16 cm^2, 24 h
Protocol: PXS-6302 was formulated as an oil in water cream of different concentrations (0, 0.3, 1, 10%) and applied to a shaved area on the back of a rat (500 mg cream applied to 16 cm^2). After 24 h animals were sacrificed, the concentration of PXS-6302 in the skin was measured and the lysyl oxidase activity determined.
To investigate the effect of repeat dosing, cream at different concentrations (0, 0.5, 1, and 3% PXS-6302, 400 mg applied to 16 cm^2) was applied once daily for 5 consecutive days and 24 h after the last dose, animals were sacrificed and the skin concentration determined.
PXS-6302 was formulated as an oil in water cream of different concentrations (0, 0.3, 1, 10%) and applied to a shaved area on the back of an adult rat (500 mg cream applied to 16 cm^2 skin surface area). After 24 h animals were euthanased. For the detection of lysyl oxidase activity in the skin, epidermal and dermal layers of the skin were dissected, pre-cooled with liquid nitrogen and pulverized. Samples were washed by homogenization with ice-cold wash buffer (0.15 M NaCl, 50 mM sodium borate, pH 8.0 with 0.25 mM PMSF and 1 µL/mL bovine aprotinin as protease inhibitors) at 100 µL/mg, centrifuged at 10,000 × g for 10 min at 4 °C and supernatant discarded. After the final washing step, the pellet was resuspended in extraction buffer (6 M urea, 50 mM sodium borate, pH 8.2 with 0.25 mM PMSF and 1 µL/mL aprotinin as protease inhibitors) with ratio of buffer volume to tissue weight at 4:1. After a 3 h incubation at 4 °C, the mixture was diluted 1:2 with assay buffer containing 50 mM sodium borate (pH 8.2), centrifuged at 20,000 × g for 20 min at 4 °C. The collected supernatant was spiked with pargyline hydrochloride and mofegiline hydrochloride at final concentrations of 0.5 mM and 1 µM, respectively, to inhibit amine oxidases. Lysyl oxidase activity was measured as previously described. The concentration of PXS-6302 in the skin was also measured in the same samples using LCMSMS as described for Franz cell diffusion assay.

Cannabinoid CB2 = Cannabinoid CB2 (Homo sapiens, UniProt P34972); experiment: Eurofins panel 217100; type: binding
Sequence of Cannabinoid CB2 (P34972 whole entry): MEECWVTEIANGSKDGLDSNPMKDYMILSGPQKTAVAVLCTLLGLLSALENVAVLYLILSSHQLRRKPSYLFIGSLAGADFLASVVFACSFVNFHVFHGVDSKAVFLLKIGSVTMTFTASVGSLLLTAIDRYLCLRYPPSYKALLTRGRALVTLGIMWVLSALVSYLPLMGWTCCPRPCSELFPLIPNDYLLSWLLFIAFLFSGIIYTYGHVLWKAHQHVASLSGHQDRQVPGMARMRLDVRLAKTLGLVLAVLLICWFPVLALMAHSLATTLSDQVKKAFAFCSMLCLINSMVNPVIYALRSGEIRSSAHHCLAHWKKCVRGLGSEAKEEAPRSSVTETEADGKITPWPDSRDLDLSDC

Sequence of Potassium Channel [KATP] (Q09427 whole entry): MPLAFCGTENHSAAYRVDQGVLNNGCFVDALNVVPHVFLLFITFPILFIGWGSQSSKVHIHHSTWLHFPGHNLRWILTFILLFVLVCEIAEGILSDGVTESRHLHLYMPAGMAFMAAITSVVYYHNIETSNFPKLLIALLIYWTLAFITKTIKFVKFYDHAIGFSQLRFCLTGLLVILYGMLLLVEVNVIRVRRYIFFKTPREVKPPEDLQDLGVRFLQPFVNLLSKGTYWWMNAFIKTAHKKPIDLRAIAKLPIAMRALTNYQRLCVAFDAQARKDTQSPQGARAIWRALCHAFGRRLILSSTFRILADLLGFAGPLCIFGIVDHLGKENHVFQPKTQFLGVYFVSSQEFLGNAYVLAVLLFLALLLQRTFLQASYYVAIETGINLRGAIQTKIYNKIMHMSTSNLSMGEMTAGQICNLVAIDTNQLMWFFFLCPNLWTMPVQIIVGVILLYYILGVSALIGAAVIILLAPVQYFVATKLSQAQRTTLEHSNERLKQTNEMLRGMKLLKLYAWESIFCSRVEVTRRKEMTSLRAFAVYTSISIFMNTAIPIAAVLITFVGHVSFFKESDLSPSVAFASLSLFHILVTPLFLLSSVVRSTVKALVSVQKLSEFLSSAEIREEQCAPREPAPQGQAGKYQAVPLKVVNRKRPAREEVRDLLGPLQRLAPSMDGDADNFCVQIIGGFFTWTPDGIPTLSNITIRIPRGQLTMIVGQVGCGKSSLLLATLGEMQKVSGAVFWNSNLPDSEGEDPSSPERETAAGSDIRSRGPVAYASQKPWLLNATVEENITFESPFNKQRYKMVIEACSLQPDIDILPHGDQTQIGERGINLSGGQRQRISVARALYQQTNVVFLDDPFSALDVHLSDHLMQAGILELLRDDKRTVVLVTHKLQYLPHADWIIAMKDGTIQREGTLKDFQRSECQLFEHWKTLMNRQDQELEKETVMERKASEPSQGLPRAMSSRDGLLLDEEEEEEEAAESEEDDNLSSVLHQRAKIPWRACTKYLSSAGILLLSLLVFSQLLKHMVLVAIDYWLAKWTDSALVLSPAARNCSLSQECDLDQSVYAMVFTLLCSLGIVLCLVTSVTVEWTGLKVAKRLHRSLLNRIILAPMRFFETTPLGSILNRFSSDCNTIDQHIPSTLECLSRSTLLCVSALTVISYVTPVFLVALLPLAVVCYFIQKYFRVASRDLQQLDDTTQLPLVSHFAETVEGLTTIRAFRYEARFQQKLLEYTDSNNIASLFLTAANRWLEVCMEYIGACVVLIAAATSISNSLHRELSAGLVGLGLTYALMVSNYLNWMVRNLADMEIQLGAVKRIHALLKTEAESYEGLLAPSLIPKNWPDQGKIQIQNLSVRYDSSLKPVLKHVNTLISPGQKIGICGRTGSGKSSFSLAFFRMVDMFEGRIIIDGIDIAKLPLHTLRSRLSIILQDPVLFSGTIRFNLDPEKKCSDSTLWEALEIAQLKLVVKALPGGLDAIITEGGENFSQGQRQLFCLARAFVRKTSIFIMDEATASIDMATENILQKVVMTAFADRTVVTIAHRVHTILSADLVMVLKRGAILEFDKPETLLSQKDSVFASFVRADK
Sequence of Leukotriene, Cysteinyl CysLT1 (Q9Y271 whole entry): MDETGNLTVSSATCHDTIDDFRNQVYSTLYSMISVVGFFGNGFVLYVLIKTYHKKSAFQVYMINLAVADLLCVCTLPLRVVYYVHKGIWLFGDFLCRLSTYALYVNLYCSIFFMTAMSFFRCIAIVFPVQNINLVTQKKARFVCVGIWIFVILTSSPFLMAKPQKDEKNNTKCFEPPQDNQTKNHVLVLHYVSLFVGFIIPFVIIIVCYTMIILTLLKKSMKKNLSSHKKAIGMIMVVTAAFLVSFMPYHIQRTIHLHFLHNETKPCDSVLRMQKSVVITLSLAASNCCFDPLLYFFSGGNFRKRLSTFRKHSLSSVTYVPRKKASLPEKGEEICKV
Sequence of Platelet Activating Factor (PAF) (P25105 whole entry): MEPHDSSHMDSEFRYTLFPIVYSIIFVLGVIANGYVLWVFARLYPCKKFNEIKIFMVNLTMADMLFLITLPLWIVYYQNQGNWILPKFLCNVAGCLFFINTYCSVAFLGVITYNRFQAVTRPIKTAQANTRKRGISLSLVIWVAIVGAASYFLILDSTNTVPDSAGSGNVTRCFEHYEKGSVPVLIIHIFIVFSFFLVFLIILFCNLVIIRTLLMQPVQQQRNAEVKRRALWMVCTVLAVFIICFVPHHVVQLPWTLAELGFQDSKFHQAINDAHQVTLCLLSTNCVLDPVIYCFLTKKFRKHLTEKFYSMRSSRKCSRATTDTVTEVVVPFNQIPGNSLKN

SMILES | collagen I production (soluble procollagen I) [1] | inhibition at 10 µM [2] [%] | inhibition at 10 µM (Potassium Channel [KATP]) [%] | inhibition at 10 µM [3] [%] | COL1A1 or LOX RNA levels ([4]; 0, 1, 10 µM, 48 h) | qPCR COLIAI ([4]; 1μM) | qPCRLOX ([4]; 1μM) | qPCR COLIAI ([4]; 10 µM) | qPCRLOX ([4]; 10 µM) | concentration at 24 h after the last dose ([5]; 400 mg of 0.5% cream on 16 cm^2, once daily for 5 days, 0.5% cream 400 mg once daily 5 days) [ng/g] | concentration at 24 h after the last dose ([5]; 400 mg of 1% cream on 16 cm^2, once daily for 5 days, 1% cream 400 mg once daily 5 days) [ng/g] | concentration at 24 h after the last dose ([5]; 400 mg of 3% cream on 16 cm^2, once daily for 5 days, 3% cream 400 mg once daily 5 days) [ng/g] | concentration at 24 h ([5]; 500 mg of 0.3% cream on 16 cm^2, single dose 0.3% cream) [ng/g] | concentration at 24 h ([5]; 500 mg of 1% cream on 16 cm^2, single dose 1% cream) [ng/g] | concentration at 24 h ([5]; 500 mg of 10% cream on 16 cm^2, single dose 10% cream) [ng/g] | inhibition at 30 µM (Cannabinoid CB2) [%]
NC/C=C(\F)CS(=O)(=O)c1ccccc1 [PXS-4787] | significant and sustained reduction | -11 | 0 | -3 | No change | 0.9946 and 1.0482 and 1.0167 | 1.068 and 1.006 and 0.9855 | 0.9655 and 0.9268 and 1.013 | 0.9777 and 0.8786 and 0.9515 |  |  |  |  |  |  | 
NC/C=C(\F)C(F)(F)S(=O)(=O)c1ccccc1 [PXS-6302] |  |  |  |  |  |  |  |  |  | 4900 ± 800 | 9300 ± 700 | 31700 ± 3280 | 7900 ± 1500 | 8900 ± 1400 | 119000 ± 7800 | -4
